Common to all, as to assay type: in vivo
Assay [1] deals with wild type mice. Description: compound 48/80-induced scratching behavior in wild type mice (Test Example 2). To be noted: wild type mice (backcrossed with C57BL/6J); intravenous, five minutes before compound 48/80; FIG. 4(a).
In assay [2] the test system is nociceptine receptor defective mice. Kind of assay: compound 48/80-induced scratching behavior in nociceptine receptor defective mice (Test Example 2). The following applies: intravenous, five minutes before compound 48/80, FIG. 4(b).
Assay [3] concerns male ddY mice. Kind of assay: compound 48/80-induced scratching behavior, intravenous administration (Test Example 1). To be noted: intravenously administered five minutes before compound 48/80 (50 μg/0.1 ml, subcutaneous, back), FIG. 1 to FIG. 3.
For assay [4], the system named is male ICR mice. Kind of assay: spontaneous scratching behavior of mice with cutaneous barrier disruption (Test Example 4). The following applies: 0.1% in 100% ethanol, applied (100 μl) in vicinity of shaved portion, before vs after application, FIG. 6. The procedure:
The rostral back portion of 5 weeks-old male ICR mice was shaved under etherization, and then cutaneous barrier was disrupted by carrying out a treatment of applying a mixed solution of acetone and ether (1:1) to the shaved portion and applying distilled water twice a day every day (10 days). […] The compound was applied (100 μl) in the vicinity of the shaved portion.

For assay [5], the system named is male ICR mice. Kind of assay: eye scratching behavior induced by instillation of serotonin (Test Example 3). To be noted: instillation of 10 μl of compound five minutes before 10 μl of 1% serotonin hydrochloride in right eye, FIG. 5. As to the method:
After the instillation of 10 μl of 1% serotonin hydrochloride (hereinafter referred to as serotonin) in the right eye of 4-6 weeks-old male ICR mice, the number of scratching behavior in the vicinity of the eye induced by the instillation of serotonin for 10 minutes. […] Five minutes before the instillation of serotonin, the instillation of 10 μl of the compound was performed. In a control group, the instillation of distilled water was performed.

The structures appear in SMILES notation.

As for `COc1ccc2nc(NC(=O)c3ccc(Cl)cc3)nc(N[C@H]3CCCC[C@H]3NC(=N)N)c2c1.Cl.Cl` [compound A, (1R,2S)—N-amidino-2-[2-(4-chlorobenzoylamino)-6-methoxyquinazolin-4-yl]aminocyclohexylamine dihydrochloride], the “scratching behavior suppressing effect (number of scratching behavior for 30 minutes)” value was “strong scratching behavior suppressing effect” in assay [1], “completely disappeared” in assay [2] and “strong scratching behavior suppressing effect” in assay [3].

On to `CCc1ccc(OCc2ccccc2C(=O)Nc2ccc3nc(C)cc(N)c3c2)cc1.Cl` [compound C, N-(4-amino-2-methyl-6-quinolyl)-2-[(4-ethylphenoxy)methyl]benzamide hydrochloride, reference compound], for which the “scratching behavior suppressing effect (number of scratching behavior for 30 minutes)” value in assay [3] is recorded as “strong scratching behavior suppressing effect”.

For the molecule `Cc1ccc2nc(NC(=O)c3ccc(Cl)cc3)nc(N[C@H]3CCCC[C@H]3NC(=N)N)c2c1.Cl.Cl` [compound D, (1R,2S)—N-amidino-2-{[2-(4-chlorobenzoylamino)-6-methylquinazolin-4-yl]amino}cyclohexylamine dihydrochloride], the “suppression of spontaneous scratching behavior induced by cutaneous barrier disruption (number of scratching behavior for 30 minutes)” value in assay [4] is reported as “strongly suppressed”. In addition, the “suppression of eye scratching behavior induced by instillation of serotonin (number of scratching behavior for 10 minutes)” value in assay [5] is given as “strongly suppressed”.

The record behind these values is patent US20080103162A1, “Antipruritics” (priority 2001, published 2008).
